The source of these data is US20250171451A1, “NOVEL HETEROCYCLIC COMPOUND AND PHARMACEUTICAL COMPOSITION COMPRISING SAME” (Samjin Pharmaceutical Co., Ltd., priority 2022, published 2025).

Bounds are passed on as bounds.

For experiment [1], the system named is TEAD response element (TRE) luciferase reporter in MCF-7 cell lines. Description: TEAD response element (TRE) reporter assay. The experiment is classed as cell-based. Particulars: Homo sapiens, MCF7; 0.2 μM compound, 24 hours, MCF-7 TEAD reporter cells, relative to vehicle (1% DMSO). The method in brief: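 MCF-7 cells stably carrying a TRE-driven firefly luciferase reporter, treated 24 h after plating with compound at 0.2 μM final (1% DMSO) in serum-free medium for 24 h. Luminescence expressed relative to vehicle control set at 10000.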
(In general: Reporter assays use an easily measured gene product as a stand-in for the process of interest.)

In experiment [2] the test system is NF2-deficient mesothelioma cell line NCI-H226. Description: Evaluation of inhibition of cancer cell proliferation (CellTiter-Glo). The experiment is classed as cell-based. The settings on record: Homo sapiens, 120 h, NCI-H226 cells, five days treatment, 2% FBS, read-out: Cancer cell growth inhibition NCI-H226 (GI50). How it is done:
The NF2-deficient mesothelioma cell line NCI-H226 was purchased from ATCC (#CRL-5826). NCI-H226 cells were cultured in RRPMI medium (ATCC) containing penicillin (100 units/mL), streptomycin (100 μg/mL) and 10% fetal bovine serum (FBS) at 37° C. and 5% CO2.
In 24 hours after dispensing said NCI-H226 cells into a 96-well plate, the cell culture medium was removed all, and then each compound corresponding to a certain concentration section (0.01, 0.05, 0.1, 0.5, 1, 5, 10 μM) or a vehicle solvent (final 1% DMSO) was diluted with a culture medium containing 2% FBS, treated at 100 μL for each well, and then cultured at 37° C. and 5% CO2. In five days after said treatment, CellTiter-Glo@2.0 Reagent (Promega) was treated in the same amount as the culture medium to measure cell growth, and placed in a shaker for two minutes so as to be well mixed, after which the plate was cultured at room temperature for ten minutes to stabilize a luminescence signal. After that, for ATP measurement through an intracellular luciferase reaction, the luminescence signal was measured using a microplate reader (TECAN). The value of the […] (GI50) at the moment when the cell proliferation was reduced by half was derived using the SoftMax Pro 5.4.1 program, and the results are shown in table 10 below.
For orientation: In ATP-based viability assays light output follows the ATP content of the culture.

Experiment [3] addresses T1, recombinant GST-TEAD1 proteins (209 to 426 a.a.) (Homo sapiens, UniProt P28347).
T1 construct: recombinant GST-TEAD1 proteins (209 to 426 a.a.)
Description: Evaluation of palmitoylation of TEAD protein. The experiment is classed as biochemical. The settings on record: 5 μM compound, 15 minutes preincubation, 3 μM alkyne palmitoyl-CoA 30 minutes, pH 6.4, vs DMSO control. The method in brief:
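GST-TEAD1 (aa 209–426) preincubated 15 min with 5 μM compound, then autopalmitoylated 30 min with 3 μM alkyne palmitoyl-CoA in 50 mM MES pH 6.4; stopped with 1% SDS. Click biotinylation, SDS-PAGE and streptavidin-HRP blot; band intensity relative to DMSO control, normalised to anti-GST signal.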

T1 sequence (P28347 209-426): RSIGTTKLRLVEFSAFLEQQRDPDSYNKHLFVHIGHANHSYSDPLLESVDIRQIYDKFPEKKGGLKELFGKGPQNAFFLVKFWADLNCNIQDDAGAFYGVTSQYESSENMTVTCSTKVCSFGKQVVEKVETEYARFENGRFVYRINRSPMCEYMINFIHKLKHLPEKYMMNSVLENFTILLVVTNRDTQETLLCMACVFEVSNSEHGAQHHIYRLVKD

Take `C=CC(=O)Nc1cnc2c(c1)c(Cl)cn2Cc1ccc(C(F)(F)F)cc1` [Compound 43, N-(3-chloro-1-(4-(trifluoromethyl)benzyl)-1H-pyrrolo[2,3-b]pyridin-5-yl)acrylamide]: the inhibition (in general, the relative decrease from the control value, in per cent) at 0.2 µM in experiment [1] was > 50%. For the same compound, the GI50 – broadly, the concentration that inhibits growth by half – in experiment [2] is 220 nM. For the same compound, the inhibition at 5 µM in experiment [3] is > 80%.
Taken in the same sequence, the figures for `C=CC(=O)Nc1cnc2c(c1)c(C)cn2-c1cccc(C(F)(F)F)c1` [Compound 50, N-(3-methyl-1-(3-(trifluoromethyl)phenyl)-1H-pyrrolo[2,3-b]pyridin-5-yl)acrylamide] were > 50%, 280 nM and > 80%.
Taken in the same sequence, the figures for `C=CC(=O)Nc1cnc2c(c1)c(C)cn2-c1ccc(Cl)cc1` [Compound 54, N-(1-(4-chlorophenyl)-3-methyl-1H-pyrrolo[2,3-b]pyridin-5-yl)acrylamide] were > 50%, 170 nM and 40 to 80%.
On to `C=CC(=O)Nc1cnc2c(c1)c(C)nn2-c1ccc(Cl)cc1` [Compound 65, N-(1-(4-chlorophenyl)-3-methyl-1H-pyrazolo[3,4-b]pyridin-5-yl)acrylamide], for which, in experiment [1], the inhibition at 0.2 µM is > 50%. Moreover, the GI50 in experiment [2] came to 50 nM. In addition, the inhibition at 5 µM in experiment [3] was > 80%.
Taken in the same sequence, the figures for `C=CC(=O)Nc1cnc2c(c1)c(C)nn2-c1ccc(OC(F)(F)F)cc1` [Compound 66, N-(3-methyl-1-(4-(trifluoromethoxy)phenyl)-1H-pyrazolo[3,4-b]pyridin-5-yl)acrylamide] were > 50%, 50 nM and > 80%.
On the same counts, the results for `C=CC(=O)Nc1cnc2c(c1)c(C)nn2-c1ccc(C(F)(F)F)nc1` [Compound 77, N-(3-methyl-1-(6-(trifluoromethyl)pyridin-3-yl)-1H-pyrazolo[3,4-b]pyridin-5-yl)acrylamide] are > 50%, 30 nM and 40 to 80%.
`C=CC(=O)N(C)c1cnc2c(c1)c(C)nn2-c1ccc(C(F)(F)F)cc1` [Compound 86, N-methyl-N-(3-methyl-1-(4-(trifluoromethyl)phenyl)-1H-pyrazolo[3,4-b]pyridin-5-yl)acrylamide]: the inhibition at 0.2 µM in experiment [1] is > 50%. Moreover, the GI50 in experiment [2] amounted to 30 nM. In addition, the inhibition at 5 µM in experiment [3] is > 80%.
Taken in the same sequence, the figures for `C=CC(=O)N(C)c1cnc2c(c1)c(C)nn2-c1ccc(OC(F)(F)F)cc1` [Compound 90, N-methyl-N-(3-methyl-1-(4-(trifluoromethoxy)phenyl)-1H-pyrazolo[3,4-b]pyridin-5-yl)acrylamide] were > 50%, 30 nM and > 80%.
In the case of `C=CC(=O)N(C)c1cnc2c(c1)c(C)nn2-c1ccc(C(F)(F)F)nc1` [Compound 92, N-methyl-N-(3-methyl-1-(6-(trifluoromethyl)pyridin-3-yl)-1H-pyrazolo[3,4-b]pyridin-5-yl)acrylamide], the inhibition at 0.2 µM in experiment [1] was > 50%. For the same compound, the GI50 in experiment [2] was 50 nM. Further, the inhibition at 5 µM in experiment [3] lay within 40 to 80%.
Taken in the same sequence, the figures for `C=CC(=O)Nc1cnc2c(c1)c(C)nn2-c1cnc(C(F)(F)F)nc1` [Compound 95, N-(3-methyl-1-(2-(trifluoromethyl)pyrimidin-5-yl)-1H-pyrazolo[3,4-b]pyridin-5-yl)acrylamide] were > 50%, 300 nM and 40 to 80%.
On the same counts, the results for `C=CC(=O)Nc1cnc2c(c1)c(C)nn2-c1cc(Cl)c(Cl)cc1C` [Compound 105] are > 50%, 260 nM and 40 to 80%.
